# According to PMC6292860, “Characterisation of small molecule ligands 4CMTB and 2CTAP as modulators of human FFA2 receptor signalling” (Scientific Reports, 2018):
# What was measured:
# [1] = tested on: intestinal ischemia reperfusion injury (IRI); experiment: Mouse model of intestinal ischemia reperfusion injury (superior mesenteric artery occlusion); type: in vivo; settings: for Circulating neutrophil numbers: IRI groups, WT mice; for Circulating neutrophil numbers / Mucosal (villi) damage, histopathological score of H&E-stained ileum / Neutrophil infiltration into the ileum (esterase-stained neutrophils, myeloperoxidase): oral gavage; for Mucosal (villi) damage, histopathological score of H&E-stained ileum / Neutrophil infiltration into the ileum (esterase-stained neutrophils, myeloperoxidase): WT IRI groups; for Circulating neutrophil counts: sham-operated mice, oral gavage 48 h, 24 h and 1 h prior to surgery, mean ± SEM
# Description: Specific pathogen-free (SPF) conventional C57BL/6J (WT) mice were obtained from the […] (ARC) and maintained at The University of Queensland Biological Resources Animal Facilities under specific pathogen-free conditions.
# FFA2^−/− knockout mice were obtained from Monash University and bred at The University of Queensland Biological Resources Animal Facilities under SPF conditions. Male mice 10–12 weeks weighing 20–30 g were used for all experiments. All experiments were performed in accordance with the guidelines and approval of The University of Queensland Animal Ethics Committee.
# After 35 minutes the ligature was removed to allow for a reperfusion period of 150 minutes. […] Mice were orally gavaged with ligand 48 hours, 24 hours and 1 hour prior to surgery. Mice were euthanised and small intestinal tissue or whole blood [collected in 1 mg/mL EDTA and 0.1 mg/mL nafamostat mesylate (FUT-175)] was collected for further analysis.
# [2] = molecular target: T1, hFFA2 (Homo sapiens, UniProt O15552); experiment: LANCE Ultra cAMP assay, inhibition of forskolin-induced cAMP, in CHO cells stably expressing hFFA2; type: cell-based; settings: for Emax: CHO; for EC50: read-out: cAMP pEC50 (converted)
# T1 construct: host or cells: CHO-K1
# T1 sequence (O15552 1-330): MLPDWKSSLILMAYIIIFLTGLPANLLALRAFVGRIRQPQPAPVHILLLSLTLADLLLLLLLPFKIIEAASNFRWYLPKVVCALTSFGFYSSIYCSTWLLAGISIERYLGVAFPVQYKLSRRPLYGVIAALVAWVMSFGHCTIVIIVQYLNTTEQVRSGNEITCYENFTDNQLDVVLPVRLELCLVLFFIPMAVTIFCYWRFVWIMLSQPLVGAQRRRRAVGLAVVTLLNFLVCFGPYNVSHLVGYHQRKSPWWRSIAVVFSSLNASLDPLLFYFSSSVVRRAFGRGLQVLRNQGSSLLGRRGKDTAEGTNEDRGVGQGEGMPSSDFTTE
# Protocol: (§1) CHO-K1, stably expressing human FFA2 (CHO-FFA2) was purchased from DiscoverX Corporation. CHO-FFA2 cells were cultured in a buffer of Ham’s F12, 10% FBS, 1% penicillin streptomycin and 800 μg/mL of G418 (Geneticin) (Invitrogen Life Technologies). Cells were passaged when 70–80% confluent using 0.05% trypsin with 1 mM EDTA in phosphate-buffered saline (PBS), pH 7.4. All cells in culture, once seeded, were incubated at 37 °C with 5% CO2.
# The LANCE Ultra cAMP homogeneous time resolved resonance energy transfer (TR-FRET) immunoassay (PerkinElmer) provides a highly sensitive and robust method for the detection of cAMP. Briefly, cells were re-suspended in stimulation buffer (1 x HBSS, 5 mM HEPES, 0.5 mM IBMX, 0.1% BSA (pH7.4)) and transferred to 384-proxiplate (PerkinElmer) at a density of 2000 cells/well. Cells were stimulated with agonist and forskolin (5 μM), where appropriate, and incubated for 30 min. EucAMP tracer and ULight-anti-cAMP solutions were added to the cells and incubated for 1 hour at room temperature. Time- resolved FRET signals were measured after excitation at 320 nm on the EnVision. All data were normalized to the functional response obtained with 1.67 mM sodium acetate.
# [3] = molecular target: T1, hFFA2; experiment: AlphaScreen SureFire pERK1/2 (Thr202/Tyr204) assay in CHO cells stably expressing hFFA2; type: cell-based; settings: for pERK1/2 response (in words): ligand alone; for Emax: CHO
# Protocol: as §1
# (§2) To measure pERK1/2 we utilised the high throughput AlphaScreen SureFire pERK1/2 (Thr202/Tyr204) Assay Kit (PerkinElmer)[42]. Detection of pERK1/2 is enabled by immuno-sandwich capture of endogenous pERK1/2 in cell lysates. Antibody-coated AlphaScreen beads generate a highly amplified signal when near due to binding of pERK1/2. Cells were seeded at 50,000 cells/well in a 96 well tissue culture plate and incubated for 24 hours at 37 °C. Cells were then incubated in serum free media overnight. Test compounds were added to the cells and incubated for 10 min at room temperature before cells were lysed and assayed for pERK1/2 using the AlphaScreen-based detection kit according to the manufacturer’s protocol (PerkinElmer).
# [4] = tested on: parental CHO-K1 cells; experiment: Ca^2+, pERK1/2 and cAMP assays on the parental CHO-K1 cell line (specificity control); type: cell-based, Chinese Hamster; settings: highest concentration of ligand
# Protocol: These cells were cultured in Ham’s F12, 10% FBS and 1% penicillin streptomycin. Cells were passaged when 70–80% confluent using 0.05% trypsin: EDTA in phosphate-buffered saline (PBS), pH 7.4. All cells in culture, once seeded, were incubated at 37 °C with 5% CO2.
# (§3) Fluo-4 Direct assay was preformed according to manufacturer’s instructions with additional wash steps and read on a Fluorescent Imaging Plate Reader (FLIPR) (Molecular Devices, California). Briefly, 10,000 cells were seeded/well in 10 μL of media in a 384 well block with a clear bottom plate and incubated overnight at 37 °C. An equivalent volume of 2x Flou-4 Direct calcium reagent was added to each well and incubated for 30 min at 37 °C and a further 30 min at room temperature. Ligand addition was carried out on the FLIPR instrument whilst fluorescence was measured at excitation 494 nm and emission at 516 nm for five minutes to enable capture of the fast calcium response.
# as §2
# The LANCE Ultra cAMP homogeneous time resolved resonance energy transfer (TR-FRET) immunoassay (PerkinElmer) provides a highly sensitive and robust method for the detection of cAMP. […] Time- resolved FRET signals were measured after excitation at 320 nm on the EnVision. […]
# [5] = tested on: FFA2; set-up: method as in earlier work; settings: cited from earlier work
# [6] = molecular target: T1, hFFA2; experiment: Fluo-4 Direct Ca^2+ flux assay in CHO cells stably expressing hFFA2; type: cell-based; settings: for Ca^2+ response (in words): ligand alone
# Protocol: as §1, §3
# [7] = antagonist mode, inhibition of ERK activation by 2 mM acetate, read-out: pERK1/2 pEC50 (Antagonist) (converted)
# [8] = 2CTAP + Acetate (2CTAP dose response in the presence of 2 mM acetate, Fig. 6A), read-out: Ca^2+ pEC50 (converted)
# [9] = antagonist mode, concentration-dependent decrease in Ca^2+, read-out: Ca^2+ pEC50 (Antagonist) (converted)
# [10] = inhibition of forskolin-induced cAMP, ligand alone, expressed as a percentage of the maximal response from acetate
# [11] = inhibition of forskolin-induced cAMP, ligand alone (agonist mode), CHO-hFFA2
# [12] = + PTX, read-out: pERK1/2 pEC50 (converted)
# [13] = + PTX, percentage of the maximal response from acetate
# [14] = ligand alone (agonist mode), CHO-hFFA2, expressed as a percentage of the maximal response from acetate
# [15] = ligand alone (agonist mode), CHO-hFFA2, read-out: pERK1/2 pEC50 (converted)
# [16] = ligand alone (agonist mode), CHO-hFFA2
# [17] = 4CMTB at 20 µM on an acetate dose response curve
# [18] = 4CMTB below 1 µM on an acetate dose response curve
SMILES,Circulating neutrophil numbers [1],"Neutrophil infiltration into the ileum (esterase-stained neutrophils, myeloperoxidase) [1]","forskolin-induced cAMP response (in words) ([2]; ligand alone, CHO-hFFA2)","EC50 [3, 7] [nM]",pERK1/2 response (in words) ([3]; CHO-hFFA2),Response in parental CHO-K1 cells [4],"EC50 [6, 8] [nM]","EC50 [6, 9] [nM]",Ca^2+ response (in words) ([6]; CHO-hFFA2),"Emax [2, 10] [%]","EC50 [2, 11] [nM]","EC50 [3, 12] [nM]","Emax [3, 13] [%]","Emax [3, 14] [%]","EC50 [3, 15] [nM]",other results
"O=C(O)CC(C(=O)Nc1nc(-c2ccccc2Cl)cs1)c1ccccc1 (racemic) [R/S-2CTAP, 4-((4-(2-chlorophenyl)thiazole-2-yl)amino)-4oxo-3-phenylbutanoic acid]",comparable to vehicle control IRI-groups,did not reduce neutrophil infiltration below the IRI group,no effect,15800,no effect,No response,631,1000,concentration-dependent decrease in Ca^2+,,,,,,,"Protective effects in IRI in the absence of FFA2 ([1]; FFA2^−/− mice, IRI): abolished; Mucosal (villi) damage, histopathological score of H&E-stained ileum [1]: mucosal damage was significantly reduced; Concentration of maximal response in the GTPγS assay [5]: 60 nM"
"CC(C)C(C(=O)Nc1nccs1)c1ccc(Cl)cc1 (racemic) [R/S-4CMTB, 2-(4-chlorophenyl)-3-methyl-N-(thiazole-2-yl)butanamide]",,,,,,No response,,,did not induce a Ca^2+ response,83,100,20000,20,85,1580,
CC(=O)O [Acetate],,,,,,No response,,,,,,,,,,"cAMP pEC50 [2, 11]: 3.9; cAMP Emax [2, 10]: 100; pERK1/2 pEC50 [3, 16]: 3.6; pERK1/2 Emax [3, 14]: 100; Ca^2+ pEC50 [6, 16]: 3.8; Ca^2+ Emax [6, 14]: 100"
"O=C(O)C[C@@H](C(=O)Nc1nc(-c2ccccc2Cl)cs1)c1ccccc1 [R-2CTAP, 4-((4-(2-chlorophenyl)thiazole-2-yl)amino)-4oxo-3-phenylbutanoic acid]",,,no effects,2510,no effects,,251,251,decreased Ca^2+,,,,,,,
"CC(C)[C@@H](C(=O)Nc1nccs1)c1ccc(Cl)cc1 [R-4CMTB, 2-(4-chlorophenyl)-3-methyl-N-(thiazole-2-yl)butanamide]",comparable to vehicle control IRI-groups,did not reduce neutrophil infiltration below the IRI group,,,,,,,no effect,74,6310,20000,16,60,10000,"Circulating neutrophil counts [1]: 0.81 × 10^6 ± 0.11; Allosteric modulation of acetate Ca^2+ response [6, 17]: mild effect on the potency of acetate but did not increase the efficacy; Allosteric modulation of acetate Ca^2+ response [6, 18]: negative allosteric modulators"
"O=C(O)C[C@H](C(=O)Nc1nc(-c2ccccc2Cl)cs1)c1ccccc1 [S-2CTAP, 4-((4-(2-chlorophenyl)thiazole-2-yl)amino)-4oxo-3-phenylbutanoic acid]",,,no effects,39800,no effects,,1580,2000,decreased Ca^2+,,,,,,,
"CC(C)[C@H](C(=O)Nc1nccs1)c1ccc(Cl)cc1 [S-4CMTB, 2-(4-chlorophenyl)-3-methyl-N-(thiazole-2-yl)butanamide]",comparable to vehicle control IRI-groups,increased neutrophil infiltration into the villi,,,,,,,,99,158,15800,22,102,794,"Mucosal (villi) damage, histopathological score of H&E-stained ileum [1]: did not reduce villi damage; Circulating neutrophil counts [1]: 0.92 × 10^6 ± 0.07; Allosteric modulation of acetate Ca^2+ response [6, 17]: increased both the potency and efficacy of acetate; Allosteric modulation of acetate Ca^2+ response [6, 18]: negative allosteric modulators; Emax [6, 14]: 55%; EC50 ([6]; ligand alone (agonist mode), CHO-hFFA2, read-out: Ca^2+ pEC50 (converted)): 2000 nM"
